Measurements as given in the kinase profiling compilation of Christmann-Franck et al. (2016).

Assays:
Experiment in all cases: radiometric filter-binding kinase assay, Kinase HotSpot
Settings in all cases: compound 0.5 µM; ATP 10 µM
[1] = target: CDK2 CCNE1 (human) (UniProt P24941+P24864)
[2] = target: NEK4 (human) (UniProt P51957)
[3] = target: TXK (human) (UniProt P42681)
[4] = target: NEK2 (human) (UniProt P51955)
[5] = target: MAPK8 (human) (UniProt P45983)
[6] = target: CSF1R (human) (UniProt P07333)
[7] = target: KDR (human) (UniProt P35968)
[8] = target: EPHA2 (human) (UniProt P29317)
[9] = target: MAPKAPK3 (human) (UniProt Q16644)
[10] = target: AKT3 (human) (UniProt Q9Y243)
[11] = target: TGFBR1 (human) (UniProt P36897)
[12] = target: PRKACA (human) (UniProt P17612)
[13] = target: DYRK3 (human) (UniProt O43781)
[14] = target: FLT1 (human) (UniProt P17948)
[15] = target: TAOK3 (human) (UniProt Q9H2K8)
[16] = target: DYRK1B (human) (UniProt Q9Y463)
[17] = target: CDK9 CCNK (human) (UniProt O75909+P50750)
[18] = target: CDK7 CCNH MNAT1 (human) (UniProt P50613+P51948+P51946)
[19] = target: STK33 (human) (UniProt Q9BYT3)
[20] = target: RPS6KA1 KD1 KD2 (human) (UniProt Q15418)
[21] = target: RPS6KA2 KD1 KD2 (human) (UniProt Q15349)
[22] = target: STK3 (human) (UniProt Q13188)
[23] = target: BTK (human) (UniProt Q06187)
[24] = target: NUAK2 (human) (UniProt Q9H093)
[25] = target: TSSK1B (human) (UniProt Q9BXA7)
[26] = target: ADRBK2 (human) (UniProt P35626)
[27] = target: MYLK (human) (UniProt Q15746)
[28] = target: FES (human) (UniProt P07332)
[29] = target: JAK1 JH1 catalytic (human) (UniProt P23458)
[30] = target: MARK1 (human) (UniProt Q9P0L2)
[31] = target: CAMK1D (human) (UniProt Q8IU85)
[32] = target: FGFR2 (human) (UniProt P21802)
[33] = target: CHUK (human) (UniProt O15111)
[34] = target: BLK (human) (UniProt P51451)
[35] = target: DAPK3 (human) (UniProt O43293)
[36] = target: PHKG1 (human) (UniProt Q16816)
[37] = target: DYRK1A (human) (UniProt Q13627)
[38] = target: NTRK2 (human) (UniProt Q16620)
[39] = target: PAK1 (human) (UniProt Q13153)
[40] = target: ADRBK1 (human) (UniProt P25098)
[41] = target: TEK (human) (UniProt Q02763)

Chain of NEK4 (human) (P51957 whole entry, looked up): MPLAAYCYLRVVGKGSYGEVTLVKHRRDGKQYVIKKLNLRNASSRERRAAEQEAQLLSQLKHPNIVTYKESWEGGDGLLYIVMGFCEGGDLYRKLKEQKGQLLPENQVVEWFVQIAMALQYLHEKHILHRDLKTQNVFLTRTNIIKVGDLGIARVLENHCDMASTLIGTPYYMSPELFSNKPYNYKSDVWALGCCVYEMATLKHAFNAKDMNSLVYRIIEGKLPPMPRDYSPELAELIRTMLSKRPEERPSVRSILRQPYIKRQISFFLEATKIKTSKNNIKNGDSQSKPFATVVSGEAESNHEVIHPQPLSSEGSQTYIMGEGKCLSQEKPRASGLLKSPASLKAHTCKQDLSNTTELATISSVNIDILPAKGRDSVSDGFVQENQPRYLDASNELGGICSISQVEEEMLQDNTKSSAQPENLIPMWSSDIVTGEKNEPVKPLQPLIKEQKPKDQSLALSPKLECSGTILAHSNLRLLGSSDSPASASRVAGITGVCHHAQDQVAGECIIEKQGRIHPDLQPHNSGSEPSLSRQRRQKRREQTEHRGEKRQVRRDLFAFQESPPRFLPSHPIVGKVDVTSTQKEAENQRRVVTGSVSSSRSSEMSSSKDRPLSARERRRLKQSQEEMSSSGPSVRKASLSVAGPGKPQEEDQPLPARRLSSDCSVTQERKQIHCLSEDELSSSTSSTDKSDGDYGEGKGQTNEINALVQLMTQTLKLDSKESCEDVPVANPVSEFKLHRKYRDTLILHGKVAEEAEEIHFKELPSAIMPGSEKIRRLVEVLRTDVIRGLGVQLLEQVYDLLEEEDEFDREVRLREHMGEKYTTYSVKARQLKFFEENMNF
Chain of CDK2 CCNE1 (human) (P24864 whole entry, looked up, other chains not shown): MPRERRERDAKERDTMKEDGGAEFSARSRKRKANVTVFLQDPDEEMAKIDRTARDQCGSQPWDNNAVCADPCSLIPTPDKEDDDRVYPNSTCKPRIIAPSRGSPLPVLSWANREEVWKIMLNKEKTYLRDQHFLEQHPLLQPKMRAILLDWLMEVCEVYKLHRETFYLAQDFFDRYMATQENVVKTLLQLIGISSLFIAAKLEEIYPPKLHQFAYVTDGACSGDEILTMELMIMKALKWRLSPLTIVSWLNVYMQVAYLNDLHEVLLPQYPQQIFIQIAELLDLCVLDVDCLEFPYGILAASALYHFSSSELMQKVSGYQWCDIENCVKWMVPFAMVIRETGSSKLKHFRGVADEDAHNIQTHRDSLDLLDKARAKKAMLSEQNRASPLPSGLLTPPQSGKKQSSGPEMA
Chain of MYLK (human) (Q15746 whole entry, looked up): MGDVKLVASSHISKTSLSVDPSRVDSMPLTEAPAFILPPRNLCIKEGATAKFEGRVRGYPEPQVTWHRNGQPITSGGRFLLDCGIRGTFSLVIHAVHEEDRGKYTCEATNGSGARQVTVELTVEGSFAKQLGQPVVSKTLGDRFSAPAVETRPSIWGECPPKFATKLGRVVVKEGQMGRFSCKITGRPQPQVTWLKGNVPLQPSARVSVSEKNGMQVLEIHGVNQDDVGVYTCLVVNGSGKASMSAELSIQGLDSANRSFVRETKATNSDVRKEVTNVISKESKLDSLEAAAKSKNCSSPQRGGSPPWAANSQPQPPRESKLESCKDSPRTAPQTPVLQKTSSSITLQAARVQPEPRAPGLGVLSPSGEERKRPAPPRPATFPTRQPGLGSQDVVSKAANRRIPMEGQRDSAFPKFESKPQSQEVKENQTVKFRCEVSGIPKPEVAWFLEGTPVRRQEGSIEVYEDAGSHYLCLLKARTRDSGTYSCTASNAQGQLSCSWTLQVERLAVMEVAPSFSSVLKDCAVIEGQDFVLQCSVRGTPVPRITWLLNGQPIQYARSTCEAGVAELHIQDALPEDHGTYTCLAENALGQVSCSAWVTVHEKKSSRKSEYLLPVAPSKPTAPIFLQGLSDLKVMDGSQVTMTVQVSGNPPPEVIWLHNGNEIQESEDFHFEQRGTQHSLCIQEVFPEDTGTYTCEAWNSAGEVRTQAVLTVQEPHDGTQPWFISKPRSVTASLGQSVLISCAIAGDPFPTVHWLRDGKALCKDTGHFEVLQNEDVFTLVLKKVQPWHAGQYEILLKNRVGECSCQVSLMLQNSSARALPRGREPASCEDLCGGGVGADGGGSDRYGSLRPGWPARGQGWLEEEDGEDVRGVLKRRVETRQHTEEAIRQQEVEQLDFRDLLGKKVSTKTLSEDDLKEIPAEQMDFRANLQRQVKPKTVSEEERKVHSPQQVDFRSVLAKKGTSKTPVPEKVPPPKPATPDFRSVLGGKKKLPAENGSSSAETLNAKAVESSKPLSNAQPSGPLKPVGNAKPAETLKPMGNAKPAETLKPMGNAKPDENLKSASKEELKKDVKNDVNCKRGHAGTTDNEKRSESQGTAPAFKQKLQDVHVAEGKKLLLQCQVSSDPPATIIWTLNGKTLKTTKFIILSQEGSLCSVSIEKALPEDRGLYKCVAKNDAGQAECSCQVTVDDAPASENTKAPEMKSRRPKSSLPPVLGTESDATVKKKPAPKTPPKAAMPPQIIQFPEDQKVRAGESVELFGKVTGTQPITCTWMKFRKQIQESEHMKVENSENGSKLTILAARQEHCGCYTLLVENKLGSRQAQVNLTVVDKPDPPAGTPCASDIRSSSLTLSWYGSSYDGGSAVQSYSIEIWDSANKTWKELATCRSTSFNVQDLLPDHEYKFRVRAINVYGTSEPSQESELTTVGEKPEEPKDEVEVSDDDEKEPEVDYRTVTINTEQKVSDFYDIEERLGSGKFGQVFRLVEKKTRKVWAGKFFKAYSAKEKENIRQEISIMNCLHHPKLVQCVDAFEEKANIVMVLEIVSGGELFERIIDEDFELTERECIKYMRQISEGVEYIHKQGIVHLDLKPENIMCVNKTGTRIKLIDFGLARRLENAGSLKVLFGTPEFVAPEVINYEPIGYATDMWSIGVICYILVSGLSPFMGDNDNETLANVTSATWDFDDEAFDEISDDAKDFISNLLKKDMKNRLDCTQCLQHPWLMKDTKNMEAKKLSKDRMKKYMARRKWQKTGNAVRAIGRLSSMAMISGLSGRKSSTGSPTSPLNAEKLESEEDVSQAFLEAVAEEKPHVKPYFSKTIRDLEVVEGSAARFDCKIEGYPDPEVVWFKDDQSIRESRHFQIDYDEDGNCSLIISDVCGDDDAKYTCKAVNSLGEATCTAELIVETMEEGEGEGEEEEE
Chain of NTRK2 (human) (Q16620 whole entry, looked up): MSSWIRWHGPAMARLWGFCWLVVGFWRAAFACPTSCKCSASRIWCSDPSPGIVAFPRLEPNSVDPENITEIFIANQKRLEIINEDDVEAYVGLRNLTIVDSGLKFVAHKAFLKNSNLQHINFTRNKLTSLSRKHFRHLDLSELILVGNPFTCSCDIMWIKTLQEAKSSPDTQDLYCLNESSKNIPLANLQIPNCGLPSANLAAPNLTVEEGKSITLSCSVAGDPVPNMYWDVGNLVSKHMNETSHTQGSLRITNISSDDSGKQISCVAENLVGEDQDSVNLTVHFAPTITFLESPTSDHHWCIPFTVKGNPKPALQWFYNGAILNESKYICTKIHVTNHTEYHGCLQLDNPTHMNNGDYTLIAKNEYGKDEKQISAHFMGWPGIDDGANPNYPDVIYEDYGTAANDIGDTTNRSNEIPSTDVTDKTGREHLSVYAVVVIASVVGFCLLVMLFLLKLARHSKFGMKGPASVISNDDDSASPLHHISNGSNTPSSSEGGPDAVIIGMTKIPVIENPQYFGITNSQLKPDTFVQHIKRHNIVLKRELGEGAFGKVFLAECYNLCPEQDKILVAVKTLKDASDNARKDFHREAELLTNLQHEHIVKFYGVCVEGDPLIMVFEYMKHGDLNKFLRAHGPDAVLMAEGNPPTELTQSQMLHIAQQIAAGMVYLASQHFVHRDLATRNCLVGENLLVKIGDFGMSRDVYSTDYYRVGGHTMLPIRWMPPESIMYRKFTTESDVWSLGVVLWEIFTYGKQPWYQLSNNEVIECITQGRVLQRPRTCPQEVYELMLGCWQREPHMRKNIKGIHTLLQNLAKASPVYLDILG
Chain of MAPK8 (human) (P45983 whole entry, looked up): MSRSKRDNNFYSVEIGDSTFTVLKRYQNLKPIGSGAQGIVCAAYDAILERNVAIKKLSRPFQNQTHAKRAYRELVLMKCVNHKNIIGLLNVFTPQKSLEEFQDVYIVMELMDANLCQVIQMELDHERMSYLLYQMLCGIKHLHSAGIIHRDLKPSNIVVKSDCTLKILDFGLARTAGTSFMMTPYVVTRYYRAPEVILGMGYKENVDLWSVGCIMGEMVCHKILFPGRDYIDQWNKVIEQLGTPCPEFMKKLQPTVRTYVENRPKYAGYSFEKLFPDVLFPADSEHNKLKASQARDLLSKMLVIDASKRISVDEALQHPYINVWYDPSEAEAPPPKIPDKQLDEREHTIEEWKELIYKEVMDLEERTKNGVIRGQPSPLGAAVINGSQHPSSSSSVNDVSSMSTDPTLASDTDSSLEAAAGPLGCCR
Chain of DYRK3 (human) (O43781 whole entry, looked up): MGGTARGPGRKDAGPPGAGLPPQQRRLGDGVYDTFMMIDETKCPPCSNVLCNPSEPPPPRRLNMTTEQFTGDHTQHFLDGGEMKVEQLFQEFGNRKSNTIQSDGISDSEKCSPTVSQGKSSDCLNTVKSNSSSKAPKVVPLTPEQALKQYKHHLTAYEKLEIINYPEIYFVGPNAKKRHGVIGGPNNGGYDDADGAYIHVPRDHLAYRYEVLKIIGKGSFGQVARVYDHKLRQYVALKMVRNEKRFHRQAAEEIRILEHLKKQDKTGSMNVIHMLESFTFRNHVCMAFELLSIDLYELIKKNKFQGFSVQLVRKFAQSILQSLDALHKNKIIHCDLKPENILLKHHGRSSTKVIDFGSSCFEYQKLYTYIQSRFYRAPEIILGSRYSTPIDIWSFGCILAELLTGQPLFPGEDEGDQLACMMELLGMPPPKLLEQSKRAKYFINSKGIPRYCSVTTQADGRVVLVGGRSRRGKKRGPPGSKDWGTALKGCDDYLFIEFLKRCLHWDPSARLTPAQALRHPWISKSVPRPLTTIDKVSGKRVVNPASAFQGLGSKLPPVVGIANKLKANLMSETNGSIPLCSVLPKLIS

O=C(c1ccccc1)c1ccc(N2CCOCC2)cc1O
residual activity [1]: 99.6%
residual activity [2]: 97.7%
residual activity [3]: 98.5%
residual activity [4]: 101%
residual activity [5]: 99.5%
residual activity [6]: 99.7%
residual activity [7]: 96.8%
residual activity [8]: 104%
residual activity [9]: 106%
residual activity [10]: 105%
residual activity [11]: 94.3%
residual activity [12]: 98.3%
residual activity [13]: 98.9%
residual activity [14]: 97.4%
residual activity [15]: 99%
residual activity [16]: 105%
residual activity [17]: 97.8%
residual activity [18]: 106%
residual activity [19]: 108%
residual activity [20]: 96.2%
residual activity [21]: 102%
residual activity [22]: 100%
residual activity [23]: 103%
residual activity [24]: 111%
residual activity [25]: 107%
residual activity [26]: 103%
residual activity [27]: 91.8%
residual activity [28]: 95.2%
residual activity [29]: 108%
residual activity [30]: 97.6%
residual activity [31]: 99.1%
residual activity [32]: 99.1%
residual activity [33]: 101%
residual activity [34]: 102%
residual activity [35]: 100%
residual activity [36]: 97.4%
residual activity [37]: 101%
residual activity [38]: 92.7%
residual activity [39]: 91.8%
residual activity [40]: 99.6%

O=c1cc(N2CCOCC2)oc2c(-c3ccccc3)cccc12
residual activity [1]: 93%
residual activity [2]: 95.1%
residual activity [3]: 93.6%
residual activity [4]: 89.8%
residual activity [5]: 106%
residual activity [6]: 98.3%
residual activity [7]: 87.2%
residual activity [8]: 104%
residual activity [9]: 101%
residual activity [10]: 102%
residual activity [11]: 97.5%
residual activity [12]: 98.3%
residual activity [13]: 100%
residual activity [15]: 88.2%
residual activity [16]: 96.8%
residual activity [17]: 95.9%
residual activity [18]: 95.4%
residual activity [19]: 92.1%
residual activity [20]: 97.3%
residual activity [21]: 92.4%
residual activity [23]: 94.5%
residual activity [24]: 95.1%
residual activity [25]: 101%
residual activity [26]: 99.8%
residual activity [27]: 97.8%
residual activity [28]: 96.6%
residual activity [29]: 108%
residual activity [30]: 100%
residual activity [31]: 47.9%
residual activity [32]: 95.8%
residual activity [33]: 104%
residual activity [34]: 120%
residual activity [35]: 96.5%
residual activity [36]: 90.1%
residual activity [37]: 97.3%
residual activity [41]: 89.2%
residual activity [38]: 112%
residual activity [39]: 97.8%
residual activity [40]: 106%

CN[C@@H]1C[C@H]2O[C@@](C)([C@@H]1OC)n1c3ccccc3c3c4c(c5c6ccccc6n2c5c31)C(=O)NC4
residual activity [2]: 46.8%
residual activity [8]: 21.3%
residual activity [10]: 2.97%
residual activity [12]: 1.93%
residual activity [17]: 9.24%
residual activity [19]: 10.7%
residual activity [29]: 2.07%
residual activity [35]: 1.91%

COc1cc2c(Nc3ccc(Br)cc3F)ncnc2cc1OCC1CCN(C)CC1
residual activity [1]: 101%
residual activity [2]: 102%
residual activity [3]: 57.5%
residual activity [4]: 103%
residual activity [5]: 93.7%
residual activity [8]: 21.5%
residual activity [9]: 98.5%
residual activity [10]: 100%
residual activity [11]: 102%
residual activity [12]: 92.8%
residual activity [13]: 96%
residual activity [15]: 98.4%
residual activity [16]: 93%
residual activity [18]: 102%
residual activity [19]: 85.1%
residual activity [20]: 102%
residual activity [21]: 85.9%
residual activity [22]: 97.5%
residual activity [23]: 17.6%
residual activity [24]: 100%
residual activity [25]: 96.6%
residual activity [26]: 97.4%
residual activity [27]: 94.2%
residual activity [28]: 104%
residual activity [29]: 99.1%
residual activity [30]: 83.7%
residual activity [31]: 90.6%
residual activity [32]: 38.4%
residual activity [33]: 96.6%
residual activity [34]: 33.8%
residual activity [35]: 90.3%
residual activity [36]: 55.5%
residual activity [37]: 106%
residual activity [41]: 50.8%
residual activity [38]: 93.2%
residual activity [39]: 108%
residual activity [40]: 92.2%

COc1cc2c(N3CCN(C(=O)Nc4ccc(OC(C)C)cc4)CC3)ncnc2cc1OCCCN1CCCCC1
residual activity [1]: 96.7%
residual activity [2]: 90.3%
residual activity [3]: 105%
residual activity [4]: 101%
residual activity [5]: 105%
residual activity [7]: 106%
residual activity [8]: 102%
residual activity [9]: 103%
residual activity [10]: 106%
residual activity [11]: 102%
residual activity [12]: 103%
residual activity [13]: 109%
residual activity [14]: 99.4%
residual activity [15]: 96.8%
residual activity [16]: 97.9%
residual activity [17]: 107%
residual activity [18]: 109%
residual activity [19]: 91.1%
residual activity [20]: 94.8%
residual activity [21]: 98.6%
residual activity [22]: 94.7%
residual activity [23]: 102%
residual activity [24]: 100%
residual activity [25]: 96.8%
residual activity [26]: 97.6%
residual activity [27]: 96.6%
residual activity [28]: 105%
residual activity [29]: 102%
residual activity [30]: 89.9%
residual activity [31]: 110%
residual activity [32]: 99.8%
residual activity [33]: 98.3%
residual activity [34]: 100%
residual activity [35]: 101%
residual activity [36]: 92.6%
residual activity [37]: 104%
residual activity [41]: 99.6%
residual activity [38]: 81.7%
residual activity [39]: 107%
residual activity [40]: 98%
